Consider twelve molecules from PMC7144940, “Principles of RNA and nucleotide discrimination by the RNA processing enzyme RppH” (Nucleic Acids Research, 2020).

Entries after “also recorded” stand apart in the source; their conditions may differ. Where two headings read alike, the source gives them in different places.

In test [1] the target is T1, Escherichia coli RppH (Escherichia coli, UniProt P0A776). Format: biochemical. As to conditions: for initial reaction rate of hydrolysis by RppH: nucleotide substrate 0.1 mM, 1 μM full-length RppH, pH 7.5, 10 mM MgCl2, 37°C, linear regression, n = 2, error is SE. Set-up: 0.1 mM substrate and 1 μM full-length RppH in case of nucleotides; decahistidine (N, cleaved yes); SUMO (N, cleaved yes); made in house; host or cells: E. coli BL21(DE3). The method, then: (§1) RppH activity on pppAG and ppAG RNAs, NTPs, NDPs, and ppGpp was determined by kinetic analysis, as described in ref. ([6]). Each reaction mixture contained 0.1 mM substrate and 1 μM full-length RppH in case of nucleotides and 0.1 μM RppH in case of RNA, in a 50-μL solution containing 50 mM HEPES-NaOH, pH 7.5, 10 mM MgCl2 , 0.1% Triton X-100, at 37°C. Reactions were incubated for 0–20 min and quenched with 750 μl of 50 mM sodium acetate, pH 4.5. The quenched reaction samples were analyzed by anion-exchange chromatography on a 5 × 50 mm MonoQ column (GE Healthcare). The reaction products and remaining substrates were eluted with a 0–1.0 M NaCl gradient in 10 mM Tris-HCl, pH 7.5, detected at 260 nm, and the amount of each mono- or oligonucleotide was calculated by using the integration function in UNICORN software (GE Healthcare). The initial reaction rates were calculated based on the ratio between remaining substrate and reaction products using a linear fit model of GraphPad. Each assay was repeated at least twice.
Target sequence in this assay (P0A776 whole entry): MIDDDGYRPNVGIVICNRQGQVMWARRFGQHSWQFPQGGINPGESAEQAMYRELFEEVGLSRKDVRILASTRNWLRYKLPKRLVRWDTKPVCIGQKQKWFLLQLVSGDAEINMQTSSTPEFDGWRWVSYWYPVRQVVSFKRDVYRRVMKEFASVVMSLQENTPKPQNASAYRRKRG

For test [2], the target named is T1, Escherichia coli RppH. Format: biochemical. Also on record: 0.1 mM substrate and 1 μM full-length RppH in case of nucleotides; decahistidine (N, cleaved yes); SUMO (N, cleaved yes); made in house; host or cells: E. coli BL21(DE3). As to conditions: for hydrolysis by RppH (TLC): 1 mM substrate, 5 μM RppH, 37°C, 1 h. Here is the method: Reactions for thin layer chromatography (TLC) were performed with 1 mM nucleotide substrates and 5 μM of the full-length RppH, in a 10-μl solution containing 10 mM MgCl2 and 50 mM buffer with different pH. Buffers were: MES-NaOH, pH 6.0; Na-cacodylate-HCl, pH 6.5; MOPS-NaOH, pH 7.0; HEPES-NaOH, pH 7.5; Tris-HCl, pH 8.0, 8.5 and 9.0. Reactions were incubated at 37°C for 1 h and quenched with 5 μl of 150 mM ethylenediaminetetraacetic acid (EDTA). Samples were analyzed on PEI-cellulose plates (F-254, Selecto Scientific) in 0.3 M potassium phosphate buffer, pH 7.5, for adenosine triphosphate (ATP), adenosine diphosphate (ADP), GTP, GDP, pppAG (RNA), ppGpp and pppGpp, and pH 3.3 for CTP and CDP, UTP and UDP. RNAs were visualized by UV254 shadowing. The equimolar amount of wild-type E. coli DapF ([8]) was added to the reactions for testing RppH activity stimulation at pH 7.5. Inhibition of RppH activity was conducted using NaF (Sigma-Aldrich) at 1–10 mM. For TLC experiments, original colored images were converted to black-and-white images, and the levels of brightness were adjusted to enhance the contrast and better visualize reaction products.
Target sequence in this assay (P0A776 whole entry): as above

Test [3] has as its target T1, Escherichia coli RppH. The test can be described thus: Metal dependence of RppH reactivity (TLC). The class given is biochemical. Also on record: RppHd (Δ161-176); Nterm-Ser0-Met1; decahistidine (N, cleaved yes); SUMO (N, cleaved yes); made in house; host or cells: E. coli BL21(DE3). The following applies: 5 mM substrate, 5 μM RppHd. Here is the method: Reactions were performed with 5 mM GTP and 5 μM RppHd, in a 20-μL solution containing 10 mM divalent cation salt (MgCl2, MnCl2, NiCl2, or CaCl2) and 50 mM buffer with different pH (HEPES-Na, pH 7.5; Tris-HCl, pH 8.0, 8.5, 9.0). Reactions were incubated at 37 °C for 1 h and quenched with 10 μL 150 mM EDTA. Samples were analyzed on PEI-cellulose plates in 0.3 M potassium phosphate buffer, pH 7.5, at room temperature. RNAs were visualized by UV254 shadowing.
Target sequence in this assay (P0A776 1-160): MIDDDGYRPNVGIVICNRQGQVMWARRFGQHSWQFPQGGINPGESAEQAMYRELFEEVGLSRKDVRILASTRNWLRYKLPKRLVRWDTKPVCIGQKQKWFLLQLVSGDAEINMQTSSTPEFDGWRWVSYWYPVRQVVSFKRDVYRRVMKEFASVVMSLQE

For test [4], the target named is T1, Escherichia coli RppH. Briefly: Competition experiments: inhibition of RNA hydrolysis by nucleotides. The class given is biochemical. Set-up: 0.1 mM substrate and 1 μM full-length RppH in case of nucleotides; decahistidine (N, cleaved yes); SUMO (N, cleaved yes); made in house; host or cells: E. coli BL21(DE3). Here is the method:
as §1
Competition experiments were conducted using the same protocol as cleavage assays with the 0.1 mM substrate RNA concentration, the nucleotide concentration ranging between 0.1-5.0 mM, and 10 min incubation. The initial reaction rates were calculated based on the ratio between reaction products and remaining substrate using a linear fit model of GraphPad software. Because of peak overlap, inhibition of GTP hydrolysis was determined solely based on quantification of the reaction products. IC50 values were determined using an IC50 model of GraphPad.
Target sequence in this assay (P0A776 whole entry): as the sequence (P0A776 whole entry) above

The target of test [5] is T2, DapFm (E. coli DapF with Y268A and R36A mutations) (Escherichia coli, UniProt P0A6K1 1-274, Y268A | R36A).
T2 construct: extra serine left at the N-terminus of all proteins by the ULP1 cleavage of the His10-SUMO tags; DapF (diaminopimelate epimerase), Escherichia coli, mutated variant of the full-length protein with Y268A and R36A; source: E. coli BL21(DE3), purified (HisTrap FF, tag cleavage by ULP1, Superdex 200); not shown: decahistidine, N-terminal, cleaved; SUMO, N-terminal, cleaved
T2 sequence: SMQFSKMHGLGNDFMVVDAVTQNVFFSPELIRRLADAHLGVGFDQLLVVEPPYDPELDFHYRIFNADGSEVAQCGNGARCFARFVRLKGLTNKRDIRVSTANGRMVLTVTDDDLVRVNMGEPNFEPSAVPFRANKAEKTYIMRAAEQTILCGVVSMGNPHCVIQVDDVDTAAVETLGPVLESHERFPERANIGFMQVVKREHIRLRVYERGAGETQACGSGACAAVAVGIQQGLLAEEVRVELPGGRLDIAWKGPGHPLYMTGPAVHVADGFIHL
Briefly: crystal structure; RppHt-DapFm complex formed by mixing DapFm and RppHt at a molar ratio of 1:1.2 (20 mM Tris-HCl pH 8.0, 500 mM NaCl, 1 mM DTT), purified on Superdex 200; crystals from 30% PEG400, 0.1 M CHES pH 9.2, 18°C; soaked with GTP, GDP or pppGpp with MgCl2 and NaF. The following applies: both partners purified.

[6] abbreviates: longer incubation, pH 7.5, 1 μM RppH.

Consider `Nc1nc2c(ncn2[C@@H]2O[C@H](COP(=O)(O)OP(=O)(O)OP(=O)(O)O)[C@@H](O)[C@H]2O)c(=O)[nH]1` [GTP, guanosine triphosphate], for which the “undigested substrate remaining at plateau” value in test [1] (setting [6]) is recorded as around 70%. In addition, the “initial reaction rate of hydrolysis by RppH” value (from here on “initial reaction rate”) in test [1] was 3.1 ± 0.13 µM/min. In addition, in test [2] (pH 8.5 and 9.0), the “hydrolysis by RppH (TLC)” value is given as “majority”. The “hydrolysis by RppH in the presence of Mg2+” value in test [3] (10 mM MgCl2, pH 7.5-9.0, 1 h) is “support hydrolysis most; also recorded: most efficiently”. In addition, the “hydrolysis by RppH in the presence of Mn2+” value in test [3] (10 mM MnCl2, pH 7.5-9.0, 1 h) is “very low efficiency; also recorded: some activity”. For the same molecule, the “hydrolysis by RppH in the presence of Ni2+ or Ca2+” value in test [3] (10 mM NiCl2 or CaCl2, pH 7.5-9.0, 1 h) is reported as “do not support hydrolysis; also recorded: no activity”. Besides, the IC50 (in general, the point on the concentration scale where inhibition reaches its midpoint) in test [4] is around 4100 µM; in test [4] (IC50, inhibition of RppH reactivity with pppAG RNA, 0.1 mM pppAG RNA, nucleotide 0.1-5.0 mM, 10 mM Mg2+, pH 7.5, 10 min, n = 2, mean ± SE) it was 1580 µM; in test [4] (IC50, range over pppAG and ppAG RNA substrates, pppAG and ppAG RNA), 1600 to 4100 µM; in test [4] (concentration to achieve 2-fold inhibition of the reaction of RppH with ppAG, ppAG RNA) it was around 4100 µM; in test [4] (concentration to achieve 2-fold inhibition of the reaction of RppH with pppAG, pppAG RNA), around 1600 µM.
On to `O=c1ccn([C@@H]2O[C@H](COP(=O)(O)OP(=O)(O)O)[C@@H](O)[C@H]2O)c(=O)[nH]1` [UDP], for which the “hydrolysis by RppH (TLC)” value in test [2] (pH 8.0) is listed as “almost all”.
Take `Nc1ncnc2c1ncn2[C@@H]1O[C@H](COP(=O)(O)OP(=O)(O)OP(=O)(O)O)[C@@H](O)[C@H]1O` [ATP, adenosine triphosphate]: in test [1] (setting [6]), the “undigested substrate remaining at plateau” value is recorded as around 70%. Also, the “initial reaction rate” value in test [1] is 4.2 ± 0.24 µM/min. The “hydrolysis by RppH (TLC)” value in test [2] (pH 8.5 and 9.0) is reported as “all”.
Consider `Nc1ccn([C@@H]2O[C@H](COP(=O)(O)OP(=O)(O)O)[C@@H](O)[C@H]2O)c(=O)n1` [CDP], for which the “hydrolysis by RppH (TLC)” value in test [2] (pH 8.0) is “almost all”.
Consider `F` [fluoride], for which the “effect on E. coli RppH activity (TLC)” value in test [2] (NaF 1-10 mM, GTP and GDP at pH 8.0, pppGpp and ppGpp at pH 7.5) is listed as “Inhibition”.
Turning to `Nc1nc2c(ncn2[C@@H]2O[C@H](COP(=O)(O)OP(=O)(O)OP(=O)(O)O)[C@@H](OP(=O)(O)OP(=O)(O)O)[C@H]2O)c(=O)[nH]1` [pppGpp], the “initial reaction rate” value in test [1] is 1.30 ± 0.10 µM/min. Also, the “times less reactive than GTP” value in test [1] (ratio of initial rates, pH 7.5) was around 2.4. Moreover, the figures for the “hydrolysis by RppH (TLC)” value in test [2] (pH 7.5) and in test [2] (pH 8.0) were “very slow hydrolysis” and “moderate hydrolysis”, respectively.
`Nc1nc2c(ncn2[C@@H]2O[C@H](COP(=O)(O)OP(=O)(O)O)[C@@H](OP(=O)(O)OP(=O)(O)O)[C@H]2O)c(=O)[nH]1` [ppGpp]: the “initial reaction rate” value in test [1] worked out at 1.20 ± 0.07 µM/min. Also, the “times less reactive than GDP” value in test [1] (ratio of initial rates, pH 7.5) is on record as around 2.8. Moreover, the “hydrolysis by RppH (TLC)” value in test [2] (pH 7.0) is on record as “slow hydrolysis”; in test [2] (pH 7.5), “About half”; in test [2] (pH 8.0) it was “most”.
As for `O=c1ccn([C@@H]2O[C@H](CO[P@@](=O)(O)O[P@@](=O)(O)OP(=O)(O)O)[C@@H](O)[C@H]2O)c(=O)[nH]1` (stereo in doubt) [UTP, uridine triphosphate], the “hydrolysis by RppH (TLC)” value in test [2] (pH 8.5 and 9.0) is on record as “majority”.
`Nc1nc2c(ncn2[C@@H]2O[C@H](COP(=O)(O)OP(=O)(O)O)[C@@H](O)[C@H]2O)c(=O)[nH]1` [GDP]: the “conversion of substrate, without approaching a plateau” value in test [1] (setting [6]) was around 50%. The “initial reaction rate” value in test [1] turned out to be 3.4 ± 0.07 µM/min. For the same molecule, in test [2] (pH 8.0), the “hydrolysis by RppH (TLC)” value was “almost all”. Moreover, the IC50 was around 59 µM in test [4] (0.1 mM ppAG RNA, nucleotide 0.1-5.0 mM, 10 mM Mg2+, pH 7.5, 10 min, n = 2, mean ± SE, GTP value estimated from a smooth curve, read-out: IC50, inhibition of RppH reactivity with ppAG RNA) and around 32 µM in test [4] (0.1 mM pppAG RNA, nucleotide 0.1-5.0 mM, 10 mM Mg2+, pH 7.5, 10 min, n = 2, mean ± SE, read-out: IC50, inhibition of RppH reactivity with pppAG RNA).
For `Nc1ccn([C@@H]2O[C@H](COP(=O)(O)OP(=O)(O)OP(=O)(O)O)[C@@H](O)[C@H]2O)c(=O)n1` [CTP, cytidine triphosphate], in test [2] (pH 8.5 and 9.0), the “hydrolysis by RppH (TLC)” value is “majority”.
Consider `Nc1ncnc2c1ncn2[C@@H]1O[C@H](COP(=O)(O)OP(=O)(O)O)[C@@H](O)[C@H]1O` [ADP, adenosine diphosphate], for which the “hydrolysis by RppH (TLC)” value in test [2] (pH 8.0) was “all”.

B1: RppHt (E. coli RppH, Δ161-176 and Q159A/E160A) (enzyme, Escherichia coli)
chain: SMIDDDGYRPNVGIVICNRQGQVMWARRFGQHSWQFPQGGINPGESAEQAMYRELFEEVGLSRKDVRILASTRNWLRYKLPKRLVRWDTKPVCIGQKQKWFLLQLVSGDAEINMQTSSTPEFDGWRWVSYWYPVRQVVSFKRDVYRRVMKEFASVVMSLAA
notes: extra serine (Ser0) left at the N-terminus by the ULP1 cleavage of the His10-SUMO tags; RNA pyrophosphohydrolase RppH, Escherichia coli, C-terminally truncated variant Δ161-176 (Met1 to residue 160) with Q159A/E160A; printed as Nterm-Ser0-Met1…Ala159-Ala160-Cterm; source: E. coli BL21(DE3), purified (HisTrap FF, tag cleavage by ULP1, HiTrap SP, Superdex 75); not shown: decahistidine, N-terminal, …
Consider B1, for which the binding result in test [5] is recorded as “binds”.
